Tests used:
[1] = target: T1, G12D-mutant human KRAS (amino acid residues 1-188) (Homo sapiens, UniProt P01116, G12D); assay: KRAS Binding Disruption Assay (AlphaScreen; biotinylated KRpep-2d analogue or RAF1-RBD), G12D; conditions: KRAS G12D; geometric mean; read-out: KRAS GMean IC50 (uM) MUTATION: G12D
T1 construct: G12D or G12C-mutant human KRAS (amino acid residues 1-188) with FLAG tag; made in house; host or cells: E. coli
Summary of the method: (§1)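 AlphaScreen readout: signal falls as compound displaces biotinylated KRpep-2d analogue or RAF1-RBD from mutant KRAS. Both partners at 5-20 nM, 1 h binding at 25° C, then 10 μg/mL Anti-Flag acceptor and streptavidin donor beads for 1 h. IC50 by nonlinear regression of % inhibition.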

[2] = target: T2, G12C-mutant human KRAS (amino acid residues 1-188) (Homo sapiens, UniProt P01116, G12C); assay: KRAS Binding Disruption Assay (AlphaScreen; biotinylated KRpep-2d analogue or RAF1-RBD), G12C; conditions: geometric mean, read-out: KRAS GMean IC50 (uM) MUTATION: G12C
T2 construct: G12D or G12C-mutant human KRAS (amino acid residues 1-188) with FLAG tag; made in house; host or cells: E. coli
Summary of the method: as §1

[3] = target: T3, G12V-mutant human KRAS (amino acid residues 1-188) (Homo sapiens, UniProt P01116, G12V); assay: KRAS Binding Competition Assay (AlphaScreen; biotinylated KRpep-2d analogue), G12V; conditions: geometric mean, read-out: KRAS GMean IC50 (uM) MUTATION: G12V
T3 construct: G12V-mutant human KRAS (amino acid residues 1-188) with FLAG tag was purified from E. coli; made in house; host or cells: E. coli

Measured: IC50

N#CCC(=O)N1[C@@H]2CC[C@H]1CN(c1nc(OC[C@@]34CCCN3C[C@H](F)C4)nc3c(F)c(-c4cc(O)cc5cccc(Cl)c45)ccc13)C2 [P-0504, 3-((1R,5S)-3-(7-(8-chloro-3-hydroxynaphthalen-1-yl)-8-fluoro-2-(((2R,7aS)-2-fluorotetrahydro-1H-pyrrolizin-7a(5H)-yl)methoxy)quinazolin-4-yl)-3,8-diazabicyclo[3.2.1]octan-8-yl)-3-oxopropanenitrile]
0.0001 to 10 µM: all assays above

Oc1cc(-c2ccc3c(N4C[C@H]5CC[C@@H](C4)N5)nc(OC[C@@]45CCCN4C[C@H](F)C5)nc3c2F)c2c(Cl)cccc2c1 [P-0510, 4-(4-((1R,5S)-3,8-diazabicyclo[3.2.1]octan-3-yl)-8-fluoro-2-(((2R,7aS)-2-fluorotetrahydro-1H-pyrrolizin-7a(5H)-yl)methoxy)quinazolin-7-yl)-5-chloronaphthalen-2-ol]
0.0001 to 10 µM: all assays above

Reference: patent US20230081426A1, “COMPOUNDS AND METHODS FOR KRAS MODULATION AND INDICATIONS THEREFOR” (Plexxikon Inc., priority 2020, published 2023)
